The results in this text go back to patent US9908848B2, “Amide derivatives of lactam based N-acylethanolamine acid amidase (NAAA) inhibitors” (The Regents of the University of California, priority 2013, dated 2018).

The target in assay [1] is T1, Rat AC (r-AC), Acid Ceramidase (Rattus norvegicus, UniProt Q6P7S1).
T1 construct: V5 (C); His (C); made in house; host or cells: HEK293 cells transfected with pEF6-rAC-V5/His, selected with G418; soluble fraction after freeze/thaw
T1 sequence (Q6P7S1 21-394): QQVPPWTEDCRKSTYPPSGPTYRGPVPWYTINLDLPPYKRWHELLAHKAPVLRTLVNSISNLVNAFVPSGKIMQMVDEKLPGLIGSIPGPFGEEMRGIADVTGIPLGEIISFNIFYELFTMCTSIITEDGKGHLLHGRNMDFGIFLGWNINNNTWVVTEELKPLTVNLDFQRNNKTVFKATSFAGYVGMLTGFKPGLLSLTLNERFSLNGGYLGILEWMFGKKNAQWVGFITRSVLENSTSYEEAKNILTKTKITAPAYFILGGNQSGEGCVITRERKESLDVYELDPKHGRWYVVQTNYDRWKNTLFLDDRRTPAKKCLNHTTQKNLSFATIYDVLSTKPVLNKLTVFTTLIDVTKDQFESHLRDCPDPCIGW
The experiment in a line: Rat AC (r-AC) assay, UPLC/MS. In kind it is biochemical. The settings on record: read-out: r-AC UPLC/MS assay % inhib. How it is done:
The selectivity of selected compounds versus Acid Ceramidase (AC) was determined.
Rat AC (r-AC) was cloned from a brain cDNA library using primers based on the sequence obtained from the National Center for Biotechnology Information (NCBI) database: 5′rAC (5′-GACCATGCTGGGCCGTAGT-3′) (SEQ ID NO:1) and 3′rAC (5′-CCAGCCTATACAAGGGTCT-3′) (SEQ ID NO:2). The PCR (High Fidelity PCR Master, Roche) product was subcloned into a pEF6-V5/His vector (Invitrogen) to construct a mammalian expression vector encoding V5/His-tagged rat AC. HEK293 cells were transfected with pEF6-rAC-V5/His using Super-Fect reagent (Qiagen) and screened with G418 (0.3 mg/mL). Cells were suspended in 20 mM Tris HCl (pH 7.5) containing 0.32M sucrose, sonicated and centrifuged at 800×g for 15 min at 4° C. The supernatants were centrifuged again at 12,000×g for 30 min at 4° C. The pellets were suspended in phosphate-buffered saline (PBS) and subjected to 2 freeze-thaw cycles at −80° C. The suspensions were centrifuged at 105,000×g for 1 hour at 4° C. The supernatants containing recombinant AC were kept at −80° C. until use. Protein concentration was measured using the bicinchoninic acid (BCA) assay (Pierce). Recombinant rat AC (50 μg) was preincubated with inhibitors (final DMSO concentration 1%) in assay buffer (100 mM sodium phosphate, 0.1% Nonidet P-40, 150 mM NaCl, 3 mM DTT, 100 mM sodium citrate, pH 4.5) for 30 min at 37° C. Reactions were started by the addition of 100 μM N-lauroyl ceramide (Nu-Chek Prep, Elysian, Minn.) and carried on for 30 min at 37° C. Reactions were stopped by addition of a mixture of chloroform/methanol (2:1, vol/vol) containing 1 nmol of heptadecanoic acid (HDA; NuChek Prep). The organic phases were collected, dried under N2, and analyzed by LC-MS in the negative-ion mode using […] (HDA) as internal standard (m/z=199 for lauric acid, m/z=269 for HDA). HDA was eluted on an XDB Eclipse C18 column isocratically at 2.2 mL/min for 1 min with a solvent mixture of 95% methanol and 5% water, both containing 0.25% acetic acid and 5 mM ammonium acetate. The column temperature was 50° C. Electrospray ionization (ESI) was in the negative mode, capillary voltage as 4 kV, and fragmentor voltage was 100 V. N2 was used as drying gas at a flow rate of 13 L/min and a temperature of 350° C. Nebulizer pressure was set at 60 psi. We monitored […] in the selected-ion monitoring (SIM) mode using HDA as internal standard. Calibration curves were generated using commercial lauric acid (Nu-Chek Prep; m/z=199).

Assay [2] relates to carrageenan-induced paw edema and heat hyperalgesia. The experiment in a line: Carrageenan-induced inflammation (paw edema, heat hyperalgesia). Type of assay: in vivo. Conditions: mice, intraperitoneal, 10-100 mg/kg. On the technique in general: In the carrageenan paw model, swelling and tenderness develop within hours.

Each structure is given as a SMILES string.

As for `O=C(CCCCCCc1ccccc1)N[C@H]1CNC1=O` [Example 7, 7-Phenyl-N-[(3S)-2-Oxoazetidin-3-yl]-heptanamide], the inhibition at 1 µM in assay [1] came out at 25%.
As to `CCCCCCCCC(=O)N[C@H]1CNC1=O` [Example 3, N-[(3S)-2-Oxoazetidin-3-yl]-nonanamide], the paw edema entry in assay [2] (FIG. 1 A) was “reduced”. Also, the heat hyperalgesia entry in assay [2] (FIG. 1 B) is “reduced”. For the same molecule, the inhibition at 1 µM in assay [1] worked out at 25%.
